Test results as given in US10363231B2, “Compounds and methods of treating ocular disorders” (CASE WESTERN RESERVE UNIVERSITY, priority 2014, dated 2019).
Where two headings read alike, the source gives them in different places.

How the values were obtained:
RPE65 = target: T1, RPE65 (Bos taurus, UniProt Q28175); experiment: Retinoid isomerase activity assay (11-cis-retinol production in RPE microsomes); type: biochemical, Bovine
T1 construct: from tissue; host or cells: bovine retinal pigment epithelium (RPE) microsomes
Experimental: (§1) Bovine RPE microsomes were isolated from RPE homogenates by differential centrifugation as previously described. The resulting microsomal precipitate was resuspended in 10 mM Bis-Tris propane/HCl buffer, pH 7.4, to achieve a total protein concentration of […]. Then the mixture was placed in a quartz cuvette and irradiated for 6 min at 4° C. with a ChromatoUVE transilluminator (model TM-15; UVP) to eliminate residual retinoids. After irradiation, DTT was added to the RPE microsomal mixture to achieve a final concentration of 5 mM.
[…] The resulting mixture was pre incubated at room temperature for 5 min. Then 1 μl of all-trans-retinol (in DMF, final concentration 20 μM) was added. The resulting mixture was incubated at 37° C. for 15 min to 2 h. The reaction was quenched by adding 300 μl of methanol, and products were extracted with 300 μl of hexanes. Production of 11-cis-retinol was quantified by normal phase HPLC with 10% (v/v) ethyl acetate in hexanes as the eluent at a flow rate of 1.4 ml·min^−1. Retinoids were detected by monitoring their absorbance at 325 nm and quantified based on a standard curve representing the relationship between the amount of 11-cis-retinol and the area under the corresponding chromatographic peak.
Primary amines of compounds derived from the aldehydes were subsequently tested for their ability to inhibit the RPE65-dependent retinoid isomerization reaction in dose- and time dependent reactions as exemplified by QEB-B-001 (FIG. 3B). Amines were incubated with RPE microsomes in the presence of all-trans-retinol and the 11-cis-retinoid binding protein, CRALBP.
Progress of the enzymatic reaction was monitored by HPLC separation of retinoids and quantification of 11-cis-retinol with a decrease of 11-cis-retinol production reflecting inhibition of RPE65 by a tested amine. […] This moderate inhibition could be enhanced by shortening the polyene chain length (TEA amines) or diminished by introducing an extra positive charge into the tested compounds (QEA-G amines).

[1] = Analysis of retinoid composition in mouse tissues: amide forms in liver by HPLC; type: in vivo, mice; conditions: oral gavage; for Protection by amide in liver: 4-week-old Abca4−/−Rdh8−/− mice, dark 24 h, liver extracts by HPLC; for amidation in vivo (accumulation of amide forms in mouse liver): liver HPLC
Experimental: (§2) Abca4^−/−Rdh8^−/− double knockout mice were generated as previously described. Mice were housed in the animal facility at the School of Medicine, Case Western Reserve University, where they were maintained under either complete darkness or in a 12-h light (˜300 lux) and 12-h dark cycle. All tested primary amines were suspended in 100 μl of soybean oil with less than 10% (v/v) DMSO and were administered by oral gavage with a 22-gauge feeding needle. Experimental manipulations in the dark were done under dim red light transmitted through a Kodak No. 1 safelight filter (transmittance >560 nm). All animal procedures and experiments were approved by the Case Western Reserve University Animal Care Committees and conformed to recommendations of the American Veterinary Medical Association Panel on Euthanasia and the Association of Research for Vision and Ophthalmology.
Two mg of primary amines were administered by oral gavage to 4-week-old Abca4^−/−Rdh8^−/− mice, which then were kept in the dark for 24 h. Then mice were euthanized, and their livers were homogenized in 1 ml of 10 mM sodium phosphate buffer, pH 7.4, containing 50% methanol (v/v). The resulting mixture was extracted with 4 ml of hexanes. Extracts were dried in vacuo, and reconstituted in 300 μl of hexanes. 100 μl of this solution was analyzed by HPLC as described above for the LRAT activity assay.
(§3) For practical reasons, only eight of these leading compounds (QEA-B-001-NH2, B-002-NH2, C-001-NH2, C-003-NH2, C006-NH2, E-002-NH2, TEA-B-002-NH2, and C00-2-NH2) along with retinylamine as a control were selected for further testing in Abca4^−/−Rdh8^−/− mice, an animal model for light-induced retinal degeneration (Table 2). Additionally, two novel amines with moderate inhibition of RPE65 (QEA-A-006-NH2 and QEA-B-003-NI 12) and one with strong inhibition (QEA-A-005-NH2) were added to the first test group for comparison. Mice were gavaged with 1 mg of a test compound and then kept in the dark for 24 h prior to being exposed to bright light (˜10,000 lux) for 1 h. Retinal damage was assessed with OCT that measured the thickness of the outer nuclear layer and by quantification of tissue 11-cis retinal levels. An example is shown for imaging results in FIG. 4A and for 11-cis-retinal quantification in FIG. 4B. Additionally, extracts of livers obtained from treated mice were analyzed by HPLC to estimate the amounts of corresponding amides (FIG. 4C).

LRAT = target: T2, LRAT (Bos taurus, UniProt Q9BGL2); experiment: LRAT activity assay with bovine RPE microsomes (esterification of the corresponding primary alcohols); type: biochemical; conditions: percentage of the corresponding primary alcohol esterified by LRAT in 1 h at 37° C; 10 μM; RPE microsomes
T2 construct: incubated with RPF microsomes that served as a source of LRAT enzymatic activity; from tissue; host or cells: bovine retinal pigment epithelium (RPE) microsomes
T2 sequence (Q9BGL2 1-230): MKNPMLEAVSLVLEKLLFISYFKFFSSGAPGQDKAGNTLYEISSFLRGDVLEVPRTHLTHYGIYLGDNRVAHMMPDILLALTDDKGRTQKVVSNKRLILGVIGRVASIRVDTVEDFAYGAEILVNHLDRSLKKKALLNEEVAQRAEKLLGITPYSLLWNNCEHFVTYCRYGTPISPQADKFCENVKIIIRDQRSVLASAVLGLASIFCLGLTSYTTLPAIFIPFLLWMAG
Experimental: as §1
Two μl of a synthesized primary alcohol or amine dissolved in DMF (final concentration 10 μM) and 2 μl of 1,2-diheptanoyl-sn-glicerol-3-phosphocholine (water, final concentration 1 mM) were added to 200 μl of 10 mM Bis-Tris propane/HCl buffer, pH 7.4, containing 150 μg of RPE microsomes and 1% (v/w) BSA. The resulting mixture was incubated at 37° C. for 1 h. The reaction was quenched by adding 300 μl of methanol. Most reaction products were extracted with 300 μl of hexanes, except for products from the QEA-C-006 and QEA-G groups which were extracted by adding 300 μl of ethyl acetate and 300 μl of water.
Reaction products were separated and quantified by normal phase HPLC (Agilent Sil 5 μm, 4.6 mm×250 mm) in stepwise gradient of ethyl acetate in hexanes (0-15 min, 10%; 20-30 min, 30%) at a flow rate of 1.4 ml·min^−1.
The properties of retinoid derivatives were examined by two standard enzymatic tests, the […] and retinoid isomerization assays. To identify substrates of LRAT, aldehydes were reduced by sodium borohydrate to their corresponding primary alcohols that then were directly used in the esterification assay (FIG. 2B).
The alcohols were incubated with RPF microsomes that served as a source of LRAT enzymatic activity. Products of the enzymatic reaction as well as the remaining substrates were extracted with organic solvents and analyzed by HPLC. The ratio between a substrate and its esterified form was used to measure enzymatic activity efficiency, based on equivalent UV absorption of the substrate and product at their specific UV maxim wavelengths. Compounds classified as ‘good’ LRAT substrates converted at least 50% of their available alcohol substrates into corresponding esters under these experimental conditions, whereas marginal LRAT substrates were converted at less than 5%. Alcohols with a 5-50% conversion ratio were classified as weak substrates. Among 35 tested compounds, 23 were categorized as good and 9 as weak substrates; 3 compounds were not esterified by LRAT (Table 1 and FIG. 2C). […] Moreover, breaking double bond conjugation along the polyene chain or deletion of a C9 and/or a C13 methyl group also was allowed.

Abca4^−/−Rdh8^−/− mice [2] = experiment: Light-induced acute retinal degeneration in Abca4−/−Rdh8−/− mice (OCT, 11-cis-retinal, ERG); type: in vivo; conditions: 2 mg; dark 24 h, then 10,000 lux 1 h
Abca4^−/−Rdh8^−/− mice [3] = experiment: Toxicity in treated Abca4−/−Rdh8−/− mice (Table 2); type: in vivo; conditions: 4-week-old Abca4−/−Rdh8−/− mice, oral gavage
Experimental: as §2, §3

[4] = primary amine, decline in 11-cis-retinol production in RPE microsomes, read-out: Inhibition of RPE65

T1 sequence (Q28175 whole entry): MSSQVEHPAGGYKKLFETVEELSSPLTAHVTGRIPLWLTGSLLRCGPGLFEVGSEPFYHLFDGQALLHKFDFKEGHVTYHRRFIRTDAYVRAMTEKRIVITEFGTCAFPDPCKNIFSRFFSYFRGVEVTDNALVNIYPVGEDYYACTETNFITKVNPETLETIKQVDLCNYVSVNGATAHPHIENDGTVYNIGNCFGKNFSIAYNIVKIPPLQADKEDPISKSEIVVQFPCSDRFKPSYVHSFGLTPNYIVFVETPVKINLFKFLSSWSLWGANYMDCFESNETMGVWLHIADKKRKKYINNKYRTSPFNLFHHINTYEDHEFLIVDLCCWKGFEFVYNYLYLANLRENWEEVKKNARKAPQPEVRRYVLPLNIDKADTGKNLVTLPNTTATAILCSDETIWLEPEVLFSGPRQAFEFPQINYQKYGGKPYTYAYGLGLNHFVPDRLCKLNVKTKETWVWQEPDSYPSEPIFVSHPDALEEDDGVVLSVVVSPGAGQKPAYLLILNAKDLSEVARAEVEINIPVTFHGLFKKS

Structure (SMILES)	IC50 (RPE65; [4]) [µM]	IC50 (RPE65; read-out: inhibition of RPE65) [µM]	Protection by amide in liver [1]	LRAT Substrate (LRAT) [%]	protection of ONL (averaged ONL thickness by OCT) (Abca4^−/−Rdh8^−/− mice [2])	Toxicity (Abca4^−/−Rdh8^−/− mice [3])	inhibition of RPE65 (RPE65)	amidation in vivo (accumulation of amide forms in mouse liver) [1]
CC1=C(/C=C/C=C/C=C/C=C/CN)C(C)(C)CCC1 [QEA-A-005-NH2]	< 10	< 10	Strong	100	protected	None	–	–
CC1=C(/C=C/C(=C/C=C/C(C)=C/CN)C(C)(C)C)CCCC1 [QEA-B-002-NH2]	> 200	–	None	30	–	None	did not inhibit	not efficiently amidated
CC1=C(/C=C/C(=C/C=C/C(C)=C/CN)C(C)(C)C)C(C)(C)CCC1 [QEA-B-003-NH2]	10 to 100	–	Weak	100	–	None	–	not efficiently amidated
CC(/C=C/C1=CCCCC1)=C\C=C\C(C)=C\CN [QEA-A-006-NH2]	10 to 100	–	None	100	–	None	–	not efficiently amidated
COc1ccc(C(=C\C=C\C(C)=C\CN)/C=C/c2ccc(O)cc2)cc1 [QEA-C-006-NH2]	> 200	–	None	50	–	None	did not inhibit	not efficiently amidated
